According to PubChem BioAssay (NCI):
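These data come from cells grown in 96-well plates and exposed to compound for 48 hours at five concentrations. GI50 = concentration required for 50% inhibition of growth. TGI marks complete inhibition of growth.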

Experiments:
Assay in all cases: NCI-60 cell line screen, 48 h
SF-268 CNS = tested on: SF-268 CNS
SNB-75 CNS = tested on: SNB-75 CNS
OVCAR-8 ovarian = tested on: OVCAR-8 ovarian
NCI-H460 lung = tested on: NCI-H460 lung
EKVX NSCLC = tested on: EKVX NSCLC
MDA-MB-435 = tested on: MDA-MB-435
HCT-116 colon = tested on: HCT-116 colon
DU-145 prostate = tested on: DU-145 prostate
CCRF-CEM leukemia = tested on: CCRF-CEM leukemia
SF-539 CNS = tested on: SF-539 CNS
SK-OV-3 ovarian = tested on: SK-OV-3 ovarian
UO-31 renal = tested on: UO-31 renal
OVCAR-4 ovarian = tested on: OVCAR-4 ovarian
HL-60(TB) leukemia = tested on: HL-60(TB) leukemia
NCI-H23 lung = tested on: NCI-H23 lung
A549 NSCLC = tested on: A549 NSCLC
NCI-H226 lung = tested on: NCI-H226 lung
UACC-62 melanoma = tested on: UACC-62 melanoma
SK-MEL-5 melanoma = tested on: SK-MEL-5 melanoma
T-47D breast = tested on: T-47D breast
LOX IMVI melanoma = tested on: LOX IMVI melanoma
SR leukemia = tested on: SR leukemia
SF-295 CNS = tested on: SF-295 CNS
KM12 colon = tested on: KM12 colon
HT29 colon = tested on: HT29 colon
HCC-2998 colon = tested on: HCC-2998 colon
TK-10 renal = tested on: TK-10 renal
A498 renal = tested on: A498 renal
RXF 393 renal = tested on: RXF 393 renal
SK-MEL-28 melanoma = tested on: SK-MEL-28 melanoma
HOP-92 NSCLC = tested on: HOP-92 NSCLC
PC-3 prostate = tested on: PC-3 prostate
U251 CNS = tested on: U251 CNS
MCF7 breast = tested on: MCF7 breast
COLO 205 colon = tested on: COLO 205 colon
SN12C renal = tested on: SN12C renal
BT-549 breast = tested on: BT-549 breast
IGROV1 ovarian = tested on: IGROV1 ovarian
SK-MEL-2 melanoma = tested on: SK-MEL-2 melanoma
OVCAR-3 ovarian = tested on: OVCAR-3 ovarian
SNB-19 CNS = tested on: SNB-19 CNS
NCI/ADR-RES ovarian = tested on: NCI/ADR-RES ovarian
HS 578T breast = tested on: HS 578T breast
K-562 leukemia = tested on: K-562 leukemia
UACC-257 melanoma = tested on: UACC-257 melanoma
CAKI-1 renal = tested on: CAKI-1 renal
ACHN renal = tested on: ACHN renal
MDA-MB-231 breast = tested on: MDA-MB-231 breast
MOLT-4 leukemia = tested on: MOLT-4 leukemia
MALME-3M melanoma = tested on: MALME-3M melanoma
786-0 renal = tested on: 786-0 renal
HOP-62 NSCLC = tested on: HOP-62 NSCLC
M14 melanoma = tested on: M14 melanoma
HCT-15 colon = tested on: HCT-15 colon
RPMI-8226 leukemia = tested on: RPMI-8226 leukemia
OVCAR-5 ovarian = tested on: OVCAR-5 ovarian
SW-620 colon = tested on: SW-620 colon
NCI-H522 lung = tested on: NCI-H522 lung

## CCN(CC)S(=O)(=O)c1ccc(OC)c(Nc2ncc(-c3ccccc3)o2)c1
SF-268 CNS
  GI50: > 22.3 µM
  TGI: > 25 µM
SNB-75 CNS
  GI50: > 9.36 µM
  TGI: > 25 µM
OVCAR-8 ovarian
  GI50: > 25 µM
  TGI: > 25 µM
NCI-H460 lung
  GI50: > 23.1 µM
  TGI: > 25 µM
EKVX NSCLC
  GI50: > 25 µM
  TGI: > 25 µM
MDA-MB-435
  GI50: > 25 µM
  TGI: > 25 µM
HCT-116 colon
  GI50: > 17.9 µM
  TGI: > 25 µM
DU-145 prostate
  GI50: > 25 µM
  TGI: > 25 µM
CCRF-CEM leukemia
  GI50: > 19.3 µM
  TGI: > 25 µM
SF-539 CNS
  GI50: > 17.3 µM
  TGI: > 25 µM
SK-OV-3 ovarian
  GI50: 20.9 µM
  TGI: > 25 µM
UO-31 renal
  GI50: > 12.9 µM
  TGI: > 25 µM
OVCAR-4 ovarian
  GI50: 5.57 µM
  TGI: > 25 µM
HL-60(TB) leukemia
  GI50: > 15 µM
  TGI: > 25 µM
NCI-H23 lung
  GI50: > 22.7 µM
  TGI: > 25 µM
A549 NSCLC
  GI50: 24.9 µM
  TGI: > 25 µM
NCI-H226 lung
  GI50: > 5.28 µM
  TGI: > 25 µM
UACC-62 melanoma
  GI50: > 18.3 µM
  TGI: > 25 µM
SK-MEL-5 melanoma
  GI50: > 12.2 µM
  TGI: > 25 µM
T-47D breast
  GI50: > 11 µM
  TGI: 24.4 µM
LOX IMVI melanoma
  GI50: > 22.6 µM
  TGI: > 25 µM
SR leukemia
  GI50: > 14.1 µM
  TGI: > 25 µM
SF-295 CNS
  GI50: > 16.5 µM
  TGI: > 25 µM
KM12 colon
  GI50: 0.845 µM
  TGI: > 25 µM
HT29 colon
  GI50: > 17.6 µM
  TGI: > 25 µM
HCC-2998 colon
  GI50: > 25 µM
  TGI: > 25 µM
TK-10 renal
  GI50: > 17.4 µM
  TGI: > 25 µM
A498 renal
  GI50: 1.24 µM
  TGI: > 15.5 µM
RXF 393 renal
  GI50: > 10.6 µM
  TGI: > 25 µM
SK-MEL-28 melanoma
  GI50: > 25 µM
  TGI: > 25 µM
HOP-92 NSCLC
  GI50: 7.12 µM
  TGI: > 25 µM
PC-3 prostate
  GI50: > 15.9 µM
  TGI: > 25 µM
U251 CNS
  GI50: > 18.7 µM
  TGI: > 25 µM
MCF7 breast
  GI50: > 14.7 µM
  TGI: > 25 µM
COLO 205 colon
  GI50: > 25 µM
  TGI: > 25 µM
SN12C renal
  GI50: > 22.7 µM
  TGI: > 25 µM
BT-549 breast
  GI50: > 18.4 µM
  TGI: > 25 µM
IGROV1 ovarian
  GI50: > 25 µM
  TGI: > 25 µM
SK-MEL-2 melanoma
  GI50: > 22.7 µM
  TGI: > 25 µM
OVCAR-3 ovarian
  GI50: > 19.5 µM
  TGI: > 25 µM
SNB-19 CNS
  GI50: > 19.2 µM
  TGI: > 25 µM
NCI/ADR-RES ovarian
  GI50: > 17.8 µM
  TGI: > 25 µM
HS 578T breast
  GI50: > 14.4 µM
  TGI: > 25 µM
K-562 leukemia
  GI50: > 16.2 µM
  TGI: > 25 µM
UACC-257 melanoma
  GI50: > 25 µM
  TGI: > 25 µM
CAKI-1 renal
  GI50: > 25 µM
  TGI: > 25 µM
ACHN renal
  GI50: > 22.7 µM
  TGI: > 25 µM
MDA-MB-231 breast
  GI50: > 13.9 µM
  TGI: > 25 µM
MOLT-4 leukemia
  GI50: > 18.3 µM
  TGI: > 25 µM
MALME-3M melanoma
  GI50: > 25 µM
  TGI: > 25 µM
786-0 renal
  GI50: 22.8 µM
  TGI: > 25 µM
HOP-62 NSCLC
  GI50: > 20.1 µM
  TGI: > 25 µM
M14 melanoma
  GI50: > 25 µM
  TGI: > 25 µM
HCT-15 colon
  GI50: > 15.5 µM
  TGI: > 25 µM
RPMI-8226 leukemia
  GI50: > 25 µM
  TGI: > 25 µM
OVCAR-5 ovarian
  GI50: > 21.7 µM
  TGI: > 25 µM
SW-620 colon
  GI50: > 23.7 µM
  TGI: > 25 µM
NCI-H522 lung
  GI50: > 16.9 µM
  TGI: > 25 µM

## C[C@@H](C(=O)Nc1ccc(Cl)cc1)C1CCC(c2ccnc3ccc(F)cc23)CC1 (some centres not stated)
SF-268 CNS
  GI50: 8.55 µM
  TGI: 60.9 µM
SNB-75 CNS
  GI50: 12.5 µM
  TGI: 92.3 µM
OVCAR-8 ovarian
  GI50: 21 µM
  TGI: > 100 µM
NCI-H460 lung
  GI50: 4.3 µM
  TGI: 45.5 µM
EKVX NSCLC
  GI50: 4.54 µM
  TGI: 61.6 µM
MDA-MB-435
  GI50: 9.08 µM
  TGI: 54.9 µM
HCT-116 colon
  GI50: 3.13 µM
  TGI: 21.6 µM
DU-145 prostate
  GI50: 12.6 µM
  TGI: > 100 µM
CCRF-CEM leukemia
  GI50: 3.43 µM
  TGI: > 100 µM
SF-539 CNS
  GI50: 11.8 µM
  TGI: 47.7 µM
SK-OV-3 ovarian
  GI50: 15.3 µM
  TGI: 73.8 µM
UO-31 renal
  GI50: 3.94 µM
  TGI: > 100 µM
OVCAR-4 ovarian
  GI50: 5.93 µM
  TGI: > 100 µM
HL-60(TB) leukemia
  GI50: 5.22 µM
  TGI: 24.7 µM
NCI-H23 lung
  GI50: 3.93 µM
  TGI: 56.4 µM
A549 NSCLC
  GI50: 9.9 µM
  TGI: > 100 µM
NCI-H226 lung
  GI50: 13.7 µM
  TGI: > 100 µM
UACC-62 melanoma
  GI50: 10.3 µM
  TGI: 47.2 µM
SK-MEL-5 melanoma
  GI50: 3.22 µM
  TGI: 11.8 µM
T-47D breast
  GI50: 3.36 µM
  TGI: 46.1 µM
LOX IMVI melanoma
  GI50: 5.85 µM
  TGI: 21.3 µM
SR leukemia
  GI50: 2.23 µM
  TGI: 12.1 µM
SF-295 CNS
  GI50: 8.12 µM
  TGI: > 100 µM
KM12 colon
  GI50: 6.01 µM
  TGI: 34.9 µM
HT29 colon
  GI50: 5.81 µM
  TGI: 40.4 µM
HCC-2998 colon
  GI50: 4.35 µM
  TGI: 24.3 µM
TK-10 renal
  GI50: 6.04 µM
  TGI: 81.3 µM
A498 renal
  GI50: 6.27 µM
  TGI: 56.8 µM
RXF 393 renal
  GI50: 3.6 µM
  TGI: 26.7 µM
SK-MEL-28 melanoma
  GI50: 10.4 µM
  TGI: > 100 µM
HOP-92 NSCLC
  GI50: 2.85 µM
  TGI: 9.15 µM
PC-3 prostate
  GI50: 3.43 µM
  TGI: > 100 µM
U251 CNS
  GI50: 20 µM
  TGI: > 100 µM
MCF7 breast
  GI50: 4.4 µM
  TGI: 97.5 µM
COLO 205 colon
  GI50: 8.8 µM
  TGI: 34 µM
SN12C renal
  GI50: 8.23 µM
  TGI: 44.4 µM
BT-549 breast
  GI50: 3.72 µM
  TGI: 22.8 µM
IGROV1 ovarian
  GI50: 9.11 µM
  TGI: > 100 µM
SK-MEL-2 melanoma
  GI50: 9.81 µM
  TGI: 29.8 µM
OVCAR-3 ovarian
  GI50: 11.9 µM
  TGI: 63.1 µM
SNB-19 CNS
  GI50: 10.8 µM
  TGI: > 100 µM
NCI/ADR-RES ovarian
  GI50: 10.1 µM
  TGI: 48 µM
HS 578T breast
  GI50: 9.3 µM
  TGI: 68.5 µM
K-562 leukemia
  GI50: 5.1 µM
  TGI: 67.4 µM
UACC-257 melanoma
  GI50: 13.3 µM
  TGI: 53.7 µM
CAKI-1 renal
  GI50: 6.23 µM
  TGI: > 100 µM
ACHN renal
  GI50: 4.61 µM
  TGI: > 100 µM
MDA-MB-231 breast
  GI50: 7.83 µM
  TGI: 48 µM
MOLT-4 leukemia
  GI50: 4.16 µM
  TGI: > 100 µM
MALME-3M melanoma
  GI50: 9.83 µM
  TGI: 60 µM
786-0 renal
  GI50: 4.31 µM
  TGI: > 100 µM
HOP-62 NSCLC
  GI50: 19.4 µM
  TGI: > 100 µM
M14 melanoma
  GI50: 7.12 µM
  TGI: > 100 µM
HCT-15 colon
  GI50: 8.32 µM
  TGI: > 100 µM
RPMI-8226 leukemia
  GI50: 2.85 µM
  TGI: 13.9 µM
OVCAR-5 ovarian
  GI50: 17.8 µM
  TGI: > 100 µM
SW-620 colon
  GI50: 19 µM
  TGI: > 100 µM
NCI-H522 lung
  GI50: 10.7 µM
  TGI: 70.5 µM
